In patent publication US8080571B2, “Tricyclic angiotensin II agonists” (Vicore Pharma AB, priority 2005, dated 2011):

Test system: duodenal mucosa
Assay: Test C: duodenal mucosal alkaline secretion assay
Type: in vivo, rat
Conditions: co-administration of the AT2 receptor antagonist with title compounds
Excerpt: Duodenal Mucosal Alkaline Secretion Assay
Compounds were exposed to the duodenal mucosa in barbiturate-anaesthetised rats prepared for in situ titration of duodenal mucosal alkaline secretion, according to the methodology described by Flemström et al in Am. J. Physiol. (1982) 243, G348.

For `Cc1cc(Cn2cnc3c2C[C@@H](C(=O)O)N(C(=O)C(c2ccccc2)c2ccccc2)C3)ccc1N(C)C` [PD123319], the “effect on the stimulation of mucosal alkalisation by the title compounds” value was “blocked”.
